# Experimental data published in patent US20200339537A1, “NOVEL COMPOUND AS INHIBITOR AGAINST BINDING OF PF34 PROTEIN TO NEDD4-1 PROTEIN AND USE THEREOF” (ENHANCEDBIO INC., priority 2017, published 2020).
# How the values were obtained:
# [1] = target: T1, binding between p34 protein and NEDD4-1 protein (Homo sapiens, UniProt P46934+Q9UHV2); assay: Inhibitory activity on binding between p34 and NEDD4-1, FRET (HTRF) assay; conditions: 1×PBS pH 7.4, 0.1% BSA, 2% DMSO, 384-well; for inhibition at 10 µM: pH 7.4, compound 10 μM; for FRET result (Inhibition % @10 μM): compound 10 μM
# T1 construct: FLAG or 6xHis (known only from the detection antibodies)
# T1 sequence (P46934 1-1319): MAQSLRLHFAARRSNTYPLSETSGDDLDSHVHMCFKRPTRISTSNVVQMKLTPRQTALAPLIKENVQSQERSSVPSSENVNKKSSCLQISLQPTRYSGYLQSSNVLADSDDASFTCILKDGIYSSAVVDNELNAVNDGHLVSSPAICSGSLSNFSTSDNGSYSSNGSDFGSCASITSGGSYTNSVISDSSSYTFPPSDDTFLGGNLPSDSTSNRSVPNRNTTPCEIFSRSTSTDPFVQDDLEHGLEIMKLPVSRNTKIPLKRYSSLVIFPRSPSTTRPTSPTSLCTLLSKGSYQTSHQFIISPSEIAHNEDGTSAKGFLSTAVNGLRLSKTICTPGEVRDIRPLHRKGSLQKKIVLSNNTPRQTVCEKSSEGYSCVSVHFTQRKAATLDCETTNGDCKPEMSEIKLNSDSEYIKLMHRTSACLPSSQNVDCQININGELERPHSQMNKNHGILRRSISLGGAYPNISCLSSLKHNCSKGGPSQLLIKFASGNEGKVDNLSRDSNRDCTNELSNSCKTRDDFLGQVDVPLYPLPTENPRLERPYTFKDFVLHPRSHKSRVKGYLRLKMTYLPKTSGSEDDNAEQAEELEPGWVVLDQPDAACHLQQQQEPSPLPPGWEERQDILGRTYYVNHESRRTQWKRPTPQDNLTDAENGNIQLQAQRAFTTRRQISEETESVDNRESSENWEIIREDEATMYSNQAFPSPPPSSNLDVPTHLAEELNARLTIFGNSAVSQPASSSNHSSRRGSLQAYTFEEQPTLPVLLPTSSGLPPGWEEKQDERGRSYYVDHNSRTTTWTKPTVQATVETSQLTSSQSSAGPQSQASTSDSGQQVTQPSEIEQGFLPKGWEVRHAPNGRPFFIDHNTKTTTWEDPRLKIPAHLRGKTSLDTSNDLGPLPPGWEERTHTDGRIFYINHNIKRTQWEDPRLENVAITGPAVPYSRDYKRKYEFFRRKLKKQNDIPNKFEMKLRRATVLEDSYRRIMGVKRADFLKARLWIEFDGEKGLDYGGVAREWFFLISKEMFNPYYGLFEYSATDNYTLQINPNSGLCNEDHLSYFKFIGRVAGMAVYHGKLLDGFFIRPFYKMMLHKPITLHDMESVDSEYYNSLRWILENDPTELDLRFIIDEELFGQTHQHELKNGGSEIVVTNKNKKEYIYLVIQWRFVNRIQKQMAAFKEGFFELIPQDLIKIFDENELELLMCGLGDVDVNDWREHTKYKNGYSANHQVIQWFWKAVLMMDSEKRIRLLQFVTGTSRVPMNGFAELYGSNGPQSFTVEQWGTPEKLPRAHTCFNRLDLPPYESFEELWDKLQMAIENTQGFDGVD
# T1 sequence (Q9UHV2 1-236): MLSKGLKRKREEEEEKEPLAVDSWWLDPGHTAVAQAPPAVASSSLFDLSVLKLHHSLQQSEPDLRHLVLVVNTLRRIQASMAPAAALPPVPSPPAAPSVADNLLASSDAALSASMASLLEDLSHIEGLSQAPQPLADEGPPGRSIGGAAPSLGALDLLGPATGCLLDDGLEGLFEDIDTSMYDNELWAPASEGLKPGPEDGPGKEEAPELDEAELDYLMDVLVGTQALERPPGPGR
# Method: Inhibitory activity of the compound on binding between p34 and NEDD4-1 was evaluated using p34 protein and NEDD4-1 protein based on the HTRF technology developed by Cisbio. In this assay, a fluorescence resonance energy transfer (FRET) signal was measured in the presence of terbium-labeled anti-FLAG antibody and d2-labeled anti-6XHis antibody. Experiments were performed in 384-well plates under a condition of 1×PBS pH 7.4, 0.1% BSA, and 2% DMSO. A background signal was measured in the absence of the p34-NEDD4-1 proteins, and a non-inhibiting signal was measured with addition of only a solvent (2% DMSO). […] Subsequently, inhibitory activity of the compound on p34-NEDD4-1 was calculated in %.
# [2] = system: PTEN (lipid phosphatase activity) in human colon cancer cell line SW620; assay: cells; format: cell-based; conditions: compound 5 μM, PTEN immunoprecipitation, diC8-PIP3 substrate, Biomol Green; for fold induction at 5 µM: Homo sapiens, SW-620, 48 h, read-out: PTEN activity (relative fold @5 μM)
compound,measurement,setting,value
Cc1ccc2nc(C(C)NC(=O)C3CCN(Cc4c[nH]c5ccc(Cl)cc45)CC3)[nH]c2c1 (stereo not shown) [Example 2],inhibition at 10 µM,[1],42.4%
Cc1cc2nc(CNC(=O)C3CCN(Cc4c[nH]c5ccc(Cl)cc45)CC3)[nH]c2cc1C [Example 3],fold induction at 5 µM,[2],1.5
O=C(NCc1nc2cc(Cl)ccc2[nH]1)C1CCN(Cc2c[nH]c3ccc(Cl)cc23)CC1 [Example 4],inhibition at 10 µM,[1],30.6%
same,fold induction at 5 µM,[2],1.8
CC(NC(=O)C1CCN(Cc2c[nH]c3ccc(Cl)cc23)CC1)c1nc2ccccc2[nH]1 (stereo not shown) [Example 5],fold induction at 5 µM,[2],1.5
O=C(NCc1nc2cc(F)ccc2[nH]1)C1CCN(Cc2c[nH]c3ccc(Cl)cc23)CC1 [Example 6],inhibition at 10 µM,[1],36.6%
same,fold induction at 5 µM,[2],3
CCC(NC(=O)C1CCN(Cc2c[nH]c3ccc(Cl)cc23)CC1)c1nc2ccccc2[nH]1 (stereo not shown) [Example 7],inhibition at 10 µM,[1],59%
O=C(NCc1nc2ccccc2[nH]1)C1CCN(Cc2c[nH]c3ccc(C(F)(F)F)cc23)CC1 [Example 8],FRET result (Inhibition % @10 μM),[1],49.4%
O=C(NCc1ncc[nH]1)C1CCN(Cc2c[nH]c3ccc(Cl)cc23)CC1 [Example 9],inhibition at 10 µM,[1],58.4%
O=C(NCc1cnccn1)C1CCN(Cc2c[nH]c3ccc(Cl)cc23)CC1 [Example 10],inhibition at 10 µM,[1],39%
O=C(NCc1nccs1)C1CCN(Cc2c[nH]c3ccc(Cl)cc23)CC1 [Example 11],inhibition at 10 µM,[1],39.1%
O=C(NCc1nccs1)C1CCN(Cc2ccc3[nH]ccc3c2)CC1 [Example 12],inhibition at 10 µM,[1],39.2%
CC(NC(=O)C1CCN(Cc2ccc3[nH]ccc3c2)CC1)c1nc2ccccc2[nH]1 (stereo not shown) [Example 13],inhibition at 10 µM,[1],38.9%
same,fold induction at 5 µM,[2],3.2
O=C(NCc1nc2ccc(F)cc2[nH]1)C1CCN(Cc2ccc3[nH]ccc3c2)CC1 [Example 14],inhibition at 10 µM,[1],44.1%
same,fold induction at 5 µM,[2],3.8
O=C(NCc1ncc[nH]1)C1CCN(Cc2ccc3[nH]ccc3c2)CC1 [Example 15],inhibition at 10 µM,[1],60.4%
O=C(NCc1nc2cc(F)c(F)cc2[nH]1)C1CCN(Cc2ccc3[nH]ccc3c2)CC1 [Example 16],inhibition at 10 µM,[1],47.2%
same,fold induction at 5 µM,[2],1.5
O=C(C1CCN(Cc2ccc3[nH]ccc3c2)CC1)N1CCn2cc(C(F)(F)F)nc2C1 [Example 17],inhibition at 10 µM,[1],48%
same,fold induction at 5 µM,[2],2.2
O=C(NCc1nc2ccccc2o1)C1CCN(Cc2ccc3[nH]ccc3c2)CC1 [Example 18],inhibition at 10 µM,[1],30%
same,fold induction at 5 µM,[2],2
O=C(NCc1nccs1)C1CCN(Cc2ccc3[nH]ccc3c2)CC1 [Example 19],FRET result (Inhibition % @10 μM),[1],32.1%
same,fold induction at 5 µM,[2],2.5
Cc1ccc2nc(CNC(=O)C3CCN(Cc4ccc5[nH]ccc5c4)CC3)[nH]c2c1 [Example 20],inhibition at 10 µM,[1],51.5%
same,fold induction at 5 µM,[2],1.9
O=C(NC(Cc1ccccc1)c1nc2ccccc2[nH]1)C1CCN(Cc2ccc3[nH]ccc3c2)CC1 (stereo not shown) [Example 21],inhibition at 10 µM,[1],56.6%
O=C(NCc1nc2ccccc2[nH]1)C1CCN(Cc2c[nH]cn2)CC1 [Example 22],inhibition at 10 µM,[1],48.1%
O=C(NCc1nc2ccccc2[nH]1)C1CCN(Cc2ccc3[nH]ccc3c2)CC1 [Example 23],inhibition at 10 µM,[1],38.2%
CCC(NC(=O)C1CCN(Cc2ccc3[nH]ccc3c2)CC1)c1nc2ccccc2[nH]1 (stereo not shown) [Example 24],inhibition at 10 µM,[1],53%
O=C(NCc1cnccn1)C1CCN(Cc2ccc3[nH]ccc3c2)CC1 [Example 26],inhibition at 10 µM,[1],42%
Cn1c(CNC(=O)C2CCN(Cc3ccc4[nH]ccc4c3)CC2)nc2ccccc21 [Example 27],fold induction at 5 µM,[2],1.8
O=C(NCc1nccs1)C1CCN(C(=O)c2ccc3[nH]ccc3c2)CC1 [Example 28],inhibition at 10 µM,[1],34.5%
Cc1ccc2[nH]c(C(C)NC(=O)C3CCN(Cc4c[nH]c5ccc(C(F)(F)F)cc45)CC3)nc2c1 (stereo not shown) [Example 29],inhibition at 10 µM,[1],59.1%
same,fold induction at 5 µM,[2],2.2
O=C(C1CCN(Cc2c[nH]c3ccc(C(F)(F)F)cc23)CC1)N1CCn2cc(C(F)(F)F)nc2C1 [Example 30],inhibition at 10 µM,[1],59.1%
same,fold induction at 5 µM,[2],1.5
O=C(NCc1cncs1)C1CN(Cc2c[nH]c3ccc(C(F)(F)F)cc23)C1 [Example 36],fold induction at 5 µM,[2],1.7
O=C(NCc1cnccn1)C1CCN(Cc2c[nH]c3ccc(C(F)(F)F)cc23)CC1 [Example 38],inhibition at 10 µM,[1],36.6%
Cn1c(CNC(=O)C2CCN(Cc3c[nH]c4ccc(C(F)(F)F)cc34)CC2)nc2ccccc21 [Example 40],inhibition at 10 µM,[1],42.8%
O=C(NCc1nc2ccccc2[nH]1)C1CCN(Cc2c[nH]c3ccc(C(F)(F)F)cc23)CC1 [Example 41],inhibition at 10 µM,[1],42.8%
Cn1c(CNC(=O)C2CCN(Cc3c[nH]c4ccccc34)CC2)nc2ccccc21 [Example 46],inhibition at 10 µM,[1],42.9%
O=C(NCc1nc2ccccc2[nH]1)C1CCN(Cc2c[nH]c3ccc(F)cc23)CC1 [Example 47],inhibition at 10 µM,[1],30.5%
O=C(NCc1nc2cc(F)c(F)cc2[nH]1)C1CCN(Cc2c[nH]c3ccc(F)cc23)CC1 [Example 48],fold induction at 5 µM,[2],1.6
CC(NC(=O)C1CCN(Cc2c[nH]c3ccccc23)CC1)c1nc2ccccc2[nH]1 (stereo not shown) [Example 49],fold induction at 5 µM,[2],1.9
CC(NC(=O)C1CCN(Cc2c[nH]c3ccc(F)cc23)CC1)c1nc2ccccc2[nH]1 (stereo not shown) [Example 50],fold induction at 5 µM,[2],2.6
Cn1cc(CN2CCC(C(=O)NCc3nc4ccccc4[nH]3)CC2)c2cc(F)ccc21 [Example 51],inhibition at 10 µM,[1],56.2%
CN(Cc1nc2ccccc2[nH]1)C(=O)C1CCN(Cc2c[nH]c3ccccc23)CC1 [Example 52],inhibition at 10 µM,[1],32.4%
O=C(NCc1nc2cc(F)c(F)cc2[nH]1)C1CCN(Cc2c[nH]c3ccccc23)CC1 [Example 53],fold induction at 5 µM,[2],1.8
Cc1ccc2nc(C(C)NC(=O)C3CCN(Cc4c[nH]c5ccccc45)CC3)[nH]c2c1 (stereo not shown) [Example 56],inhibition at 10 µM,[1],56.2%
Cn1cc(CN2CCC(C(=O)NCc3nc4ccccc4[nH]3)CC2)c2ccccc21 [Example 59],fold induction at 5 µM,[2],2
O=C(NCc1nc2ccccc2[nH]1)C1CCN(Cc2c[nH]c3cc(F)c(F)cc23)CC1 [Example 60],inhibition at 10 µM,[1],38.4%
Cn1c(CNC(=O)N2CCN(Cc3c[nH]c4ccc(Cl)cc34)CC2)nc2ccccc21 [Example 63],inhibition at 10 µM,[1],52.3%
CC(NC(=O)N1CCN(Cc2c[nH]c3ccc(Cl)cc23)CC1)c1nc2ccccc2[nH]1 (stereo not shown) [Example 65],inhibition at 10 µM,[1],53.1%
CN(Cc1nc2ccccc2n1C)C(=O)N1CCN(Cc2c[nH]c3ccc(Cl)cc23)CC1 [Example 69],fold induction at 5 µM,[2],1.6
CN(Cc1nc2ccccc2n1C)C(=O)N1CCN(Cc2c[nH]c3ccc(Cl)cc23)CC1 [Example 70],PTEN activity (relative fold @5 μM),[2]; 48 hours,2.1 fold
O=C(NCc1nc2ccccc2[nH]1)N1CCN(Cc2c[nH]c3ccc(Cl)cc23)CC1 [Example 75],inhibition at 10 µM,[1],52.4%
O=C(NCc1nccs1)N1CCN(Cc2c[nH]c3ccc(Cl)cc23)CC1 [Example 76],fold induction at 5 µM,[2],1.7
Cc1[nH]c2ccc(CN3CCN(C(=O)NCc4nccs4)CC3)cc2c1C [Example 88],fold induction at 5 µM,[2],2.2
